Measured values published in patent publication US9890142B2, “PDE4 inhibitor” (Meiji Seika Pharma Co., Ltd., priority 2013, dated 2018).

Tested on: PDE4
Experiment: Evaluation of PDE4 inhibition (scintillation proximity assay)
Type: biochemical
Details: inhibition rate relative to control, test compound at 1 μM
Procedure, shortened: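 PDE4 was incubated 120 min at room temperature with [3H]-cAMP and compound in 50 mM Tris-HCl pH 7.5, 8.3 mM MgCl2, 1.7 mM EDTA, 0.3 mg/mL BSA. Product captured on ZnSO4-containing YSi-SPA beads and counted; inhibition calculated against DMSO control after no-enzyme blank subtraction.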

In the case of C[C@H]1CNCCN1c1nc2cc(Cl)cc(C(=O)NO)c2o1 [Example 98, (S)-5-Chloro-7-hydroxyaminocarbonyl-2-(2-methylpiperazin-1-yl)benzoxazole], the “PDE4 inhibitory activity (1 μM (%))” value is reported as <10%.
In the case of C[C@H]1CNCCN1c1nc2cc(Cl)cc(C(=O)O)c2o1 [Example 99, (S)-5-Chloro-7-carboxy-2-(2-methylpiperazin-1-yl)benzoxazole], the “PDE4 inhibitory activity (1 μM (%))” value is reported as <10%.

Going from CNC(=O)c1cc(Cl)cc2nc(N3CCNC[C@@H]3C)oc12 [Example 100, (S)-5-Chloro-7-methylaminocarbonyl-2-(2-methylpiperazin-1-yl)benzoxazole] to CCNC(=O)c1cc(Cl)cc2nc(N3CCNC[C@@H]3C)oc12 [Example 101, (S)-5-Chloro-7-ethylaminocarbonyl-2-(2-methylpiperazin-1-yl)benzoxazole], the “PDE4 inhibitory activity (1 μM (%))” value rises from 16% to 27%.

Compared with C[C@H]1CNCCN1c1nc2cc(F)cc(-c3ccccn3)c2o1 [Example 102, (S)-5-Fluoro-2-(2-methylpiperazin-1-yl)-7-(pyridin-2-yl)benzoxazole], Cc1cc(-c2ccccn2)c2oc(N3CCNC[C@@H]3C)nc2c1 [Example 114, (S)-5-methyl-2-(2-methylpiperazin-1-yl)-7-(pyridin-2-yl)benzoxazole] is lower in “PDE4 inhibitory activity (1 μM (%))” value: 85% for the first, 77% for the second.

First: C[C@H]1CNCCN1c1nc2cc(F)cc(-c3nccs3)c2o1 [Example 103, (S)-5-Fluoro-2-(2-methylpiperazin-1-yl)-7-(thiazol-2-yl)benzoxazole]
Second: Cc1cc(-c2nccs2)c2oc(N3CCNC[C@@H]3C)nc2c1 [Example 115, (S)-5-methyl-2-(2-methylpiperazin-1-yl)-7-(thiazol-2-yl)benzoxazole]
The “PDE4 inhibitory activity (1 μM (%))” value of the first is higher: 96% for the first, 91% for the second.

Going from C[C@H]1CNCCN1c1nc2cc(F)cc(-c3ncco3)c2o1 [Example 104, (S)-5-Fluoro-2-(2-methylpiperazin-1-yl)-7-(oxazol-2-yl)benzoxazole] to Cc1cc(-c2ncco2)c2oc(N3CCNC[C@@H]3C)nc2c1 [Example 116, (S)-5-methyl-2-(2-methylpiperazin-1-yl)-7-(oxazol-2-yl)benzoxazole], the “PDE4 inhibitory activity (1 μM (%))” value falls from 88% to 80%.

First: C[C@H]1CNCCN1c1nc2cc(Cl)cc(-c3ncon3)c2o1 [Example 105, (S)-5-Chloro-2-(2-methylpiperazin-1-yl)-7-(1,2,4-oxadiazol-3-yl)benzoxazole]
Second: C[C@H]1CNCCN1c1nc2cc(Cl)cc(-c3ccon3)c2o1 [Example 108, (S)-5-Chloro-7-(isoxazol-3-yl)-2-(2-methylpiperazin-1-yl)benzoxazole]
The “PDE4 inhibitory activity (1 μM (%))” value of the first is lower: 61% for the first, 66% for the second.

Going from C[C@H]1CNCCN1c1nc2cc(Cl)cc(C3=NCCO3)c2o1 [Example 106, (S)-5-Chloro-7-(4,5-dihydro-oxazol-2-yl)-2-(2-methylpiperazin-1-yl)benzoxazole] to C[C@H]1CNCCN1c1nc2cc(Cl)cc(-c3ccno3)c2o1 [Example 109, (S)-5-Chloro-7-(isoxazol-5-yl)-2-(2-methylpiperazin-1-yl)benzoxazole], the “PDE4 inhibitory activity (1 μM (%))” value rises from 42% to 61%.

Compared with COCc1cc(Cl)cc2nc(N3CCNC[C@@H]3C)oc12 [Example 107, (S)-5-Chloro-7-(methoxymethyl)-2-(2-methylpiperazin-1-yl)benzoxazole], C[C@H]1CNCCN1c1nc2cc(Cl)cc(Br)c2o1 [Example 110, (S)-7-Bromo-5-chloro-2-(2-methylpiperazin-1-yl)benzoxazole] is lower in “PDE4 inhibitory activity (1 μM (%))” value: 66% for the first, 57% for the second.

Going from C[C@H]1CNCCN1c1nc2cc(C#N)cc(-c3ccccn3)c2o1 [Example 111, (S)-5-Cyano-2-(2-methylpiperazin-1-yl)-7-(pyridin-2-yl)benzoxazole] to C[C@H]1CNCCN1c1nc2cc(C(F)(F)F)cc(-c3ccccn3)c2o1 [Example 125, (S)-2-(2-Methylpiperazin-1-yl)-7-(pyridin-2-yl)-5-(trifluoromethyl)benzoxazole], the “PDE4 inhibitory activity (1 μM (%))” value rises from 83% to 91%.

Going from C[C@H]1CNCCN1c1nc2cc(C#N)cc(-c3nccs3)c2o1 [Example 112, (S)-5-Cyano-2-(2-methylpiperazin-1-yl)-7-(thiazol-2-yl)benzoxazole] to C[C@H]1CNCCN1c1nc2cc(C#N)cc(-c3ncco3)c2o1 [Example 113, (S)-5-Cyano-2-(2-methylpiperazin-1-yl)-7-(oxazol-2-yl)benzoxazole], the “PDE4 inhibitory activity (1 μM (%))” value falls from 94% to 71%.

C[C@H]1CNCCN1c1nc2c(C(F)(F)F)c(F)cc(-c3ccccn3)c2o1 [Example 117, (S)-5-Fluoro-2-(2-methylpiperazin-1-yl)-7-(pyridin-2-yl)-4-(trifluoromethyl)benzoxazole] and C[C@H]1CNCCN1c1nc2c(OC(F)(F)F)c(F)cc(-c3ccccn3)c2o1 [Example 134, (S)-5-Fluoro-2-(2-methylpiperazin-1-yl)-7-(pyridin-2-yl)-4-(trifluoromethoxy)benzoxazole] are the same in “PDE4 inhibitory activity (1 μM (%))” value: 88% for the first, 88% for the second.

C[C@H]1CNCCN1c1nc2c(C(F)(F)F)c(F)cc(-c3nccs3)c2o1 [Example 118, (S)-5-Fluoro-2-(2-methylpiperazin-1-yl)-7-(thiazol-2-yl)-4-(trifluoromethyl)benzoxazole] and C[C@H]1CNCCN1c1nc2c(OC(F)(F)F)c(F)cc(-c3nccs3)c2o1 [Example 135, (S)-5-Fluoro-2-(2-methylpiperazin-1-yl)-7-(thiazol-2-yl)-4-(trifluoromethoxy)benzoxazole] are the same in “PDE4 inhibitory activity (1 μM (%))” value: 99% for the first, 99% for the second.

Going from C[C@H]1CNCCN1c1nc2c(C(F)(F)F)c(F)cc(-n3cccn3)c2o1 [Example 119, (S)-5-Fluoro-2-(2-methylpiperazin-1-yl)-7-(1H-pyrazol-1-yl)-4-(trifluoromethyl)benzoxazole] to C[C@H]1CNCCN1c1nc2c(OC(F)(F)F)c(F)cc(-n3cccn3)c2o1 [Example 136, (S)-5-Fluoro-2-(2-methylpiperazin-1-yl)-7-(1H-pyrazol-1-yl)-4-(trifluoromethoxy)benzoxazole], the “PDE4 inhibitory activity (1 μM (%))” value falls from 91% to 90%.

Going from C[C@H]1CNCCN1c1nc2c(F)c(Cl)c(F)c(-c3ccccn3)c2o1 [Example 120, (S)-5-Chloro-4,6-difluoro-2-(2-methylpiperazin-1-yl)-7-(pyridin-2-yl)benzoxazole] to C[C@H]1CNCCN1c1nc2c(F)c(F)c(F)c(-c3ccccn3)c2o1 [Example 122, (S)-4,5,6-Trifluoro-2-(2-methylpiperazin-1-yl)-7-(pyridin-2-yl)benzoxazole], the “PDE4 inhibitory activity (1 μM (%))” value rises from 41% to 79%.

Compared with C[C@H]1CNCCN1c1nc2c(F)c(Cl)c(F)c(-c3nccs3)c2o1 [Example 121, (S)-5-Chloro-4,6-difluoro-2-(2-methylpiperazin-1-yl)-7-(thiazol-2-yl)benzoxazole], C[C@H]1CNCCN1c1nc2c(F)c(F)c(F)c(-c3nccs3)c2o1 [Example 123, (S)-4,5,6-Trifluoro-2-(2-methylpiperazin-1-yl)-7-(thiazol-2-yl)benzoxazole] is higher in “PDE4 inhibitory activity (1 μM (%))” value: 62% for the first, 95% for the second.

First: C[C@H]1CNCCN1c1nc2c(F)c(F)c(F)c(-n3cccn3)c2o1 [Example 124, (S)-4,5,6-Trifluoro-2-(2-methylpiperazin-1-yl)-7-(1H-pyrazol-1-yl)benzoxazole]
Second: C[C@H]1CNCCN1c1nc2c(F)c(Cl)cc(-n3cccn3)c2o1 [Example 130, (S)-5-Chloro-4-fluoro-2-(2-methylpiperazin-1-yl)-7-(1H-pyrazol-1-yl)benzoxazole]
The “PDE4 inhibitory activity (1 μM (%))” value of the first is lower: 46% for the first, 83% for the second.

Going from C[C@H]1CNCCN1c1nc2cc(C(F)(F)F)cc(-c3nccs3)c2o1 [Example 126, (S)-2-(2-Methylpiperazin-1-yl)-7-(thiazol-2-yl)-5-(trifluoromethyl)benzoxazole] to C[C@H]1CNCCN1c1nc2cc(C(F)(F)F)cc(-c3ncco3)c2o1 [Example 127, (S)-2-(2-Methylpiperazin-1-yl)-7-(oxazol-2-yl)-5-(trifluoromethyl)benzoxazole], the “PDE4 inhibitory activity (1 μM (%))” value falls from 95% to 90%.

Going from C[C@H]1CNCCN1c1nc2c(F)c(Cl)cc(-c3ccccn3)c2o1 [Example 128, (S)-5-Chloro-4-fluoro-2-(2-methylpiperazin-1-yl)-7-(pyridin-2-yl)benzoxazole] to Cc1c(Cl)cc(-c2ccccn2)c2oc(N3CCNC[C@@H]3C)nc12 [Example 131, (S)-5-Chloro-4-methyl-2-(2-methylpiperazin-1-yl)-7-(pyridin-2-yl)benzoxazole], the “PDE4 inhibitory activity (1 μM (%))” value rises from 79% to 90%.

First: C[C@H]1CNCCN1c1nc2c(F)c(Cl)cc(-c3nccs3)c2o1 [Example 129, (S)-5-Chloro-4-fluoro-2-(2-methylpiperazin-1-yl)-7-(thiazol-2-yl)benzoxazole]
Second: Cc1c(Cl)cc(-c2nccs2)c2oc(N3CCNC[C@@H]3C)nc12 [Example 132, (S)-5-Chloro-4-methyl-2-(2-methylpiperazin-1-yl)-7-(thiazol-2-yl)benzoxazole]
The “PDE4 inhibitory activity (1 μM (%))” value of the first is higher: 97% for the first, 94% for the second.

Going from Cc1c(Cl)cc(-n2cccn2)c2oc(N3CCNC[C@@H]3C)nc12 [Example 133, (S)-5-Chloro-4-methyl-2-(2-methylpiperazin-1-yl)-7-(1H-pyrazol-1-yl)benzoxazole] to Cc1c(Cl)cc2nc(N3CCNC[C@@H]3C)oc2c1-c1ccccn1 [Example 137, (S)-5-Chloro-6-methyl-2-(2-methylpiperazin-1-yl)-7-(pyridin-2-yl)benzoxazole], the “PDE4 inhibitory activity (1 μM (%))” value falls from 92% to 33%.

In the case of Cc1c(Cl)cc2nc(N3CCNC[C@@H]3C)oc2c1-c1nccs1 [Example 138, (S)-5-Chloro-6-methyl-2-(2-methylpiperazin-1-yl)-7-(thiazol-2-yl)benzoxazole], the “PDE4 inhibitory activity (1 μM (%))” value is reported as 86%.
